{
  "source": "patent US20220281848A1",
  "about": "“PYRAZOLE-SUBSTITUTED PYRROLIDINONES AS HERBICIDES” (FMC Corporation, priority 2019, published 2022)",
  "type_in_all_cases": "in vivo",
  "key": {"[1]": {"tested_on": "plants", "test": "Test D post-emergence, other plants of Tables D2 and D4", "settings": "post-emergence", "method_in_brief": "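Seeds treated with herbicide safener; sown in soil; glasshouse, 16 h light, 65% humidity. Sprayed day 1 (pre) or ~day 12 (post). Spray in 0.2% v/v adjuvant. Scored 0–100 damage: 20 DAA pre, 15 d post.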"}, "[2]": {"tested_on": "corn (Zea mays, ZEAMX)", "test": "Test A post-emergence, corn", "settings": "after 13 d", "method_in_brief": "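Visual damage rating (0 no damage to 100 total damage) was made 13 d after spraying. The spray was 15.625, 62.5 or 250 g/ha in 50:50 acetone/water with 0.5% Tween 20, applied to 8-day-old glasshouse plants kept at 24/16° C, 14 h light and 65% humidity.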"}, "[3]": {"tested_on": "barnyardgrass (Echinochloa crus-galli, ECHCG)", "test": "Test A pre-emergence, barnyardgrass", "settings": "after 13 d", "method_in_brief": "(§1)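 Damage rated 0–100 (100 = total) 13 d after spraying. Application was one day post-sowing at 15.625, 62.5 or 250 g/ha, formulated in 50:50 acetone/water plus 0.5% Tween 20. Pots held in glasshouse at 24/16 °C day/night, 14 h light, 65% humidity, watered twice daily.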"}, "[4]": {"tested_on": "velvetleaf (Abutilon theophrasti, ABUTH)", "test": "Test A pre-emergence, velvetleaf", "settings": "after 13 d", "method_in_brief": "as §1"}, "[5]": {"tested_on": "ivy-leaved morning glory (Ipomoea hederacea, IPOHE)", "test": "Test A pre-emergence, ivy-leaved morning glory", "settings": "after 13 d", "method_in_brief": "as §1"}},
  "data": [
    {"smiles": "CN1CC(c2cc(C(F)(F)F)n(C)n2)C(C(=O)Nc2cccc(F)c2C(F)(F)F)C1=O", "note": "(racemic) [Compound 19]", "values": [
      {"measurement": "damage to plant (100=total damage to plant; 0=no damage to plant), BIDPI", "setting": "[1]; rate 250, evaluated after 15 d", "value": 0},
      {"measurement": "damage to plant (100=total damage to plant; 0=no damage to plant), BIDPI", "setting": "[1]; rate 500, evaluated after 15 d", "value": 10},
      {"measurement": "damage to plant (100=total damage to plant; 0=no damage to plant), BRAPL", "setting": "[1]; rate 130, evaluated after 15 d", "value": 60},
      {"measurement": "damage to plant (100=total damage to plant; 0=no damage to plant), BRAPL", "setting": "[1]; rate 250, evaluated after 15 d", "value": 70},
      {"measurement": "damage to plant (100=total damage to plant; 0=no damage to plant), BRAPL", "setting": "[1]; rate 500, evaluated after 15 d", "value": 80},
      {"measurement": "damage to plant (100=total damage to plant; 0=no damage to plant), CYPES", "setting": "[1]; rate 130, evaluated after 15 d", "value": 0},
      {"measurement": "damage to plant (100=total damage to plant; 0=no damage to plant), CYPES", "setting": "[1]; rate 250, evaluated after 15 d", "value": 0},
      {"measurement": "damage to plant (100=total damage to plant; 0=no damage to plant), CYPES", "setting": "[1]; rate 500, evaluated after 15 d", "value": 0},
      {"measurement": "damage to plant (100=total damage to plant; 0=no damage to plant), DIGSA", "setting": "[1]; rate 130, evaluated after 15 d", "value": 60},
      {"measurement": "damage to plant (100=total damage to plant; 0=no damage to plant), DIGSA", "setting": "[1]; rate 250, evaluated after 15 d", "value": 70},
      {"measurement": "damage to plant (100=total damage to plant; 0=no damage to plant), DIGSA", "setting": "[1]; rate 500, evaluated after 15 d", "value": 80},
      {"measurement": "damage to plant (100=total damage to plant; 0=no damage to plant), ECHCG", "setting": "[1]; rate 130, evaluated after 15 d", "value": 10},
      {"measurement": "damage to plant (100=total damage to plant; 0=no damage to plant), ECHCG", "setting": "[1]; rate 250, evaluated after 15 d", "value": 20},
      {"measurement": "damage to plant (100=total damage to plant; 0=no damage to plant), ECHCG", "setting": "[1]; rate 500, evaluated after 15 d", "value": 70},
      {"measurement": "damage to plant (100=total damage to plant; 0=no damage to plant), ELEIN", "setting": "[1]; rate 130, evaluated after 15 d", "value": 10},
      {"measurement": "damage to plant (100=total damage to plant; 0=no damage to plant), ELEIN", "setting": "[1]; rate 250, evaluated after 15 d", "value": 10},
      {"measurement": "damage to plant (100=total damage to plant; 0=no damage to plant), ELEIN", "setting": "[1]; rate 500, evaluated after 15 d", "value": 60},
      {"measurement": "damage to plant (100=total damage to plant; 0=no damage to plant), EPHHL", "setting": "[1]; rate 130, evaluated after 15 d", "value": 0},
      {"measurement": "damage to plant (100=total damage to plant; 0=no damage to plant), EPHHL", "setting": "[1]; rate 250, evaluated after 15 d", "value": 10},
      {"measurement": "damage to plant (100=total damage to plant; 0=no damage to plant), EPHHL", "setting": "[1]; rate 500, evaluated after 15 d", "value": 30},
      {"measurement": "damage to plant (100=total damage to plant; 0=no damage to plant), GLXMA", "setting": "[1]; rate 130, evaluated after 15 d", "value": 0},
      {"measurement": "damage to plant (100=total damage to plant; 0=no damage to plant), GLXMA", "setting": "[1]; rate 250, evaluated after 15 d", "value": 0},
      {"measurement": "damage to plant (100=total damage to plant; 0=no damage to plant), GLXMA", "setting": "[1]; rate 500, evaluated after 15 d", "value": 20},
      {"measurement": "damage to plant (100=total damage to plant; 0=no damage to plant), IPOHE", "setting": "[1]; rate 130, evaluated after 15 d", "value": 0},
      {"measurement": "damage to plant (100=total damage to plant; 0=no damage to plant), IPOHE", "setting": "[1]; rate 250, evaluated after 15 d", "value": 0},
      {"measurement": "damage to plant (100=total damage to plant; 0=no damage to plant), IPOHE", "setting": "[1]; rate 500, evaluated after 15 d", "value": 20},
      {"measurement": "damage to plant (100=total damage to plant; 0=no damage to plant), ORYSA", "setting": "[1]; rate 130, evaluated after 15 d", "value": 0},
      {"measurement": "damage to plant (100=total damage to plant; 0=no damage to plant), ORYSA", "setting": "[1]; rate 250, evaluated after 15 d", "value": 0},
      {"measurement": "damage to plant (100=total damage to plant; 0=no damage to plant), ORYSA", "setting": "[1]; rate 500, evaluated after 15 d", "value": 10},
      {"measurement": "damage to plant (100=total damage to plant; 0=no damage to plant), PANMI", "setting": "[1]; rate 130, evaluated after 15 d", "value": 0},
      {"measurement": "damage to plant (100=total damage to plant; 0=no damage to plant), PANMI", "setting": "[1]; rate 250, evaluated after 15 d", "value": 10},
      {"measurement": "damage to plant (100=total damage to plant; 0=no damage to plant), PANMI", "setting": "[1]; rate 500, evaluated after 15 d", "value": 40},
      {"measurement": "damage to plant (100=total damage to plant; 0=no damage to plant), SETFA", "setting": "[1]; rate 130, evaluated after 15 d", "value": 0},
      {"measurement": "damage to plant (100=total damage to plant; 0=no damage to plant), SETFA", "setting": "[1]; rate 250, evaluated after 15 d", "value": 50},
      {"measurement": "damage to plant (100=total damage to plant; 0=no damage to plant), SETFA", "setting": "[1]; rate 500, evaluated after 15 d", "value": 70},
      {"measurement": "damage to plant (100=total damage to plant; 0=no damage to plant), SORVU", "setting": "[1]; rate 130, evaluated after 15 d", "value": 0},
      {"measurement": "damage to plant (100=total damage to plant; 0=no damage to plant), SORVU", "setting": "[1]; rate 250, evaluated after 15 d", "value": 0},
      {"measurement": "damage to plant (100=total damage to plant; 0=no damage to plant), SORVU", "setting": "[1]; rate 500, evaluated after 15 d", "value": 20},
      {"measurement": "damage to plant (100=total damage; 0=no damage) ZEAMX", "setting": "[2]; Post-Emergence at 15.625 g/ha", "value": 0},
      {"measurement": "damage to plant (100=total damage; 0=no damage) ZEAMX", "setting": "[2]; Post-Emergence at 62.5 g/ha", "value": 0},
      {"measurement": "damage to plant (100=total damage; 0=no damage) ZEAMX", "setting": "[2]; Post-Emergence at 250 g/ha", "value": 10},
      {"measurement": "damage to plant (100=total damage; 0=no damage) ECHCG", "setting": "[3]; Pre-Emergence at 15.625 g/ha", "value": 70},
      {"measurement": "damage to plant (100=total damage; 0=no damage) ECHCG", "setting": "[3]; Pre-Emergence at 62.5 g/ha", "value": 90},
      {"measurement": "damage to plant (100=total damage; 0=no damage) ECHCG", "setting": "[3]; Pre-Emergence at 250 g/ha", "value": 90},
      {"measurement": "damage to plant (100=total damage; 0=no damage) ABUTH", "setting": "[4]; Pre-Emergence at 15.625 g/ha", "value": 0},
      {"measurement": "damage to plant (100=total damage; 0=no damage) ABUTH", "setting": "[4]; Pre-Emergence at 62.5 g/ha", "value": 0},
      {"measurement": "damage to plant (100=total damage; 0=no damage) ABUTH", "setting": "[4]; Pre-Emergence at 250 g/ha", "value": 0},
      {"measurement": "damage to plant (100=total damage; 0=no damage) IPOHE", "setting": "[5]; Pre-Emergence at 15.625 g/ha", "value": 0},
      {"measurement": "damage to plant (100=total damage; 0=no damage) IPOHE", "setting": "[5]; Pre-Emergence at 62.5 g/ha", "value": 0},
      {"measurement": "damage to plant (100=total damage; 0=no damage) IPOHE", "setting": "[5]; Pre-Emergence at 250 g/ha", "value": 10}
    ]}
  ]
}
